Measured values: patent publication US20210380994A1, “LACTOCOCCUS LACTIS EXPRESSION SYSTEM FOR DELIVERING PROTEINS EFFICACIOUS FOR THE TREATMENT OF EPITHELIAL BARRIER FUNCTION DISORDERS” (Second Genome, Inc., priority 2018, published 2021)

What was measured:
[1] = mouse, in vivo, ip
Method: Eight-week old C57BL/6 mice were housed 5 animals per cage and given food and water ad libitum for 7 days. Following the 7-day acclimation period, treatments were initiated concurrently with addition of 2.5% DSS to the drinking water. […] The mice were treated with 2.5% DSS in their drinking water for 6 days. […] Fresh 2.5% DSS drinking water was prepared every 2 days.

[2] = system: C57BL/6 mice treated with DSS; experiment: therapeutic DSS model of inflammatory bowel disease, treatment after 7 days DSS (Examples 5, 13B); format: in vivo
Method: Following a 7-day acclimation period, the mice were provided with drinking water containing 2.5% DSS for 7 days. Fresh 2.5% DSS water was prepared every 2 days during the 7 day DSS administration. For this therapeutic DSS study, SG-11 used to treat the animals was fused at its N-terminus to a FLAG Tag (DYKDDDDK; SEQ ID NO:32).
On day 7, normal drinking water was restored and i.p. treatments of 50 nmole/kg of SG-11 ([…]) or Gly2-GLP2 (0.2 mg/kg) were initiated. Treatments were administered twice a day (b.i.d.), with a morning and evening dose (every 8 and 16 hours) for six days.
Body weight was measured daily during the morning treatment. The colon tissue was then harvested and length was measured in centimeters and the tissue was weighed. Fecal material was flushed from the colon and residual PBS removed by gently running the colon tissue through a pair of forceps. The colon tissue was then weighed and colon weight to length ratio in mg/mm was determined. Following weight measurements proximal and distal colon tissue was banked for RNA and protein analysis and the remaining tissues was fixed in 10% neutral buffered formalin for histopathology. Statistical analysis was performed by a one-way ANOVA compared to DSS+vehicle for serum 4KDa-FITC translocation, scrum LBP concentrations, colon length, and colon weight to length ratio, while a two-way ANOVA was performed for analysis of body weight. In all analysis, a Fisher's LSD test for multiple comparisons was used. Graphs represent data pooled from two experiments, and are plotted as mean±SEM.
Histopathology analysis was performed on proximal and distal colon tissues from the therapeutic DSS model described above. Proximal (FIG. 13A) and distal (FIG. 13B) colon scores (range 0-4) are presented as well as the total score for the colon which represents the sum of proximal and distal colon scores (Range 0-8) (FIG. 13C). LMA=Loss of mucosal architecture, Edema=Edema, INF=Inflammation, TMI=Transmural inflammation, MH=Mucosal hyperplasia, DYS=Dysplasia. Graphs represent data pooled from two independent experiments, and are plotted as mean±SEM. Statistical analysis was performed by a one-way ANOVA compared to DSS+vehicle followed by a Fisher's LSD test for multiple comparisons. […]
At the end of each DSS model study, mice were fasted for 4 hours and then orally gavaged with 600 mg/kg 4KDa dextran labeled with FITC [4KDa-FITC]. One hour after the 4KDa-FITC gavage, mice were euthanized, blood was collected, and FITC signal was measured in serum. […]
Upon completion of the OSS models above. LBP levels were measured as an inflammation centric readout of barrier function following the protocol detailed in Example 5. […] LPS binding protein (LBP) levels were measured in serum using a commercially available ELISA Kit (Enzo Lift Sciences).

[3] = system: C57BL/6 mice treated with DSS; experiment: concurrent (prophylactic) DSS model of inflammatory bowel disease (Examples 4, 13A); format: in vivo; conditions: Example 4; 50 nmoles/kg i.p. b.i.d.
Method: On day six, mice were fasted for four hours and then orally gavaged with 600 mg/kg 4KDa dextran labeled with fluorescein isothiocyanate (FITC) [4KDa-FITC]. One hour after the 4KDa-FITC gavage, mice were euthanized, blood was collected, and FITC signal was measured in serum. […] The magnitude of 4KDa-FITC dextran translocation observed for SG-11 was similar to the positive control of Gly2-GLP2. Results are shown in FIG. 3, and are presented as mean±SEM. The graph in FIG. 3 represents data pooled from 3 independent experiments, each using 10 mice (n=30).
SG-11 was also assessed for its effects on the levels of lipopolysaccharide (LPS) binding protein (LBP) in the blood of the DSS animal with and without SG-11 administration. LBP, which has been linked to clinical disease activity in subjects with inflammatory bowel disease, was also measured by […] in the serum of mice tested in the DSS model described in this Example. […] Results are shown in FIG. 4, and are presented as mean±SEM. The graph in FIG. 4 represents data pooled from 3 independent experiments (n=30; each experiment using 10 mice).
Body weight was measured daily from mice included in the DSS model described in this Example. Percent change from starting weight on day 0 was determined for each mouse. […]
Colon length was measured in mice included in the DSS model described above. […]

[4] = system: HCT8 enterocyte and HT29-MTX goblet cell lines; experiment: Oris Cell Migration assay (epithelial cell wound healing); format: cell-based, human; conditions: 48 hours; SG-11 1 μg/ml, EGF 30 ng/ml, staurosporine 100 nM; FIG. 2
Text: The 96 well Oris Cell Migration assay containing plugs preventing cell attachment in the center of each well was used according to the manufacturer's instructions (Platypus Technologies. Madison, Wis.).
The migration assay plates were warmed to room temperature prior to use and plugs were removed rom 100% confluence wells prior to cell addition. The HCT8 enterocyte and HT29-MTX goblet cell lines were used at a 9:1 ratio with a total of 5×10^4 total cells added per well (4.5×10^4 HCT8 cells and 0.5×10^4 HT29-MTX cells). Cells were incubated at 37° C.+5% CO2 for 24 hours. Plugs were then removed from all control and sample wells. Control wells included cells treated with the diluent vehicle as the blank, 30 ng/ml epidermal growth factor (EGF) as the positive control, and 100 nM staurosporine as the negative control, all diluted in cRPMI. Sample wells contained SG-11 protein (SEQ ID NO:9) at a concentration of 1 μg/ml diluted in eRPMI. 100% and 0% wells were cultured in cRPMI. […] The green fluorescent viability dye Calcenin AM was added to all wells at a concentration of 0.5 μg/min PBS containing 0.9 mM CaCl2 and 0.5 mM MgCl2, incubated for 30 min at 37° C.+5% CO2, the dye was removed and cells were washed in PBS containing 0.9 mM CaCl2 and 0.5 mM MgCl2, and fluorescence was measured. […] Samples were normalized between 100% and 0% samples and values expressed as a percent growth.

[5] = system: human colonic epithelial cells (HCT8 enterocytes and HT29-MTX goblet cells); experiment: trans-epithelial electrical resistance (TEER) assay, epithelial/monocyte co-culture disrupted by heat killed E. coli; format: cell-based; conditions: staurosporine 100 nM, control compound
Method: Assays were performed as described below in trans-well plates where co-cultures of multiple cell types were performed utilizing a permeable membrane to separate cells. In the apical (top) chamber, human colonic epithelial cells, consisting of a mixture of enterocytes and goblet cells, were cultured until cells obtained tight junction formation and barrier function capacity as assessed by measurement of trans-epithelial electrical resistance (TEER). In the basolateral chamber, monocytes were cultured separately. Epithelial […] were primed with inflammatory cytokines. The assays measured the effect of a therapeutic protein, e.g., SG-11, on epithelial barrier function, muc2 gene expression, and production of cytokines.
Cell culture. The HCT8 human enterocyte cell line (ATCC Cat. No. CCL-244) was maintained in RPMI-1640 medium supplemented with 10% fetal bovine seam, 100 IU/ml penicillin, 100 ? g/ml streptomycin, 10 ? g/ml gentamicin and 0.25 μg/ml amphotericin (cRPMI). […]
Epithelial cell culture. […] Epithelial cells were trypsinized from culture flasks and viable cells determined by trypan blue counting. […]
Co-culture assay. […] TEER readings were measured after the IFN-© treatment and were used as the pre-treatment TEER value. […]

For “fluorescently labeled bovine serum albumin: fluorescently labeled bovine serum albumin used for tracking studies”, the “time at which protein reached the colon” value [1] was 6 h.

For Gly2-GLP2 [reference compound], the “histopathology: inflammation and transmural inflammation scores” value ([2]; Example 5) was “no change”, the “histopathology: loss of mucosal architecture score” value ([2]; Example 5) was “modest, but significant reduction” and the “serum LBP” value ([2]; Example 5, 50 nmole/kg i.p. b.i.d. six days after 7 days DSS, FLAG-tagged SG-11) was “no reduction in LBP”. For the same molecule, the “colon weight to length ratio” value ([2]; Example 13B, p<0.01) was “did not”, the colon length [3] was “significant improvement in colon length” and the “colon weight to length ratio” value [3] was “significant improvement in colon weight to length ratios”.

In the case of “EGF: epidermal growth factor, positive control (NSDSECPLSHDGYCLHDGVCMYIEALDKYACNCVVGYIGERCQYRDLKWWELR; UniProt P01133 971-1023, looked up)”, the “percent growth (epithelial cell wound healing)” value [4] is reported as “increasing proliferation”.

For `CN[C@@H]1C[C@H]2O[C@@](C)([C@@H]1OC)n1c3ccccc3c3c4c(c5c6ccccc6n2c5c31)C(=O)NC4` [staurosporine, reference compound], the “percent growth (epithelial cell wound healing)” value [4] was “suppressing cell proliferation” and the TEER [5] was “drastic decrease in TEER”.
